Source: patent publication US20220251109A1, “OXAAZAQUINAZOLINE-7(8H)-KETONE COMPOUND, PREPARATION METHOD THEREFOR AND PHARMACEUTICAL APPLICATION THEREOF” (GENFLEET THERAPEUTICS (SHANGHAI) INC., priority 2019, published 2022)

Legend:
Type in all cases: cell-based, human
[1] = test system: NCI-H358 cells (Kras G12C mutation); test: Cell proliferation inhibition experiment, 3D model, CellTiter-Glo (NCI-H358); settings: NCI-H358, 3D sphere plate, 5 days, 2% FBS
Outline: (§1)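 Luminescent ATP read-out (CellTiter-Glo) after 5-day compound treatment gave % inhibition relative to DMSO control and medium blank, fitted four-parameter for IC50. Spheroids were formed overnight in 2% FBS medium from 800 H358 or 400 A549 cells per well; dilutions were 3.16-fold, final DMSO 0.1%.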

[2] = test system: A549 cells (Kras G12S mutation); test: Cell proliferation inhibition experiment, 3D model, CellTiter-Glo (A549); settings: A549, 3D sphere plate, 5 days, 2% FBS
Outline: as §1

[3] = test system: p-ERK in MIA PaCa2 cells (Kras G12C mutation); test: Cell p-ERK detection experiment (HTRF) in MIA PaCa2 cells; settings: compound 2 hours
Outline: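 MIA PaCa2 cells (KRAS G12C) seeded overnight, then treated 2 h with 3.16-fold compound dilutions (0.1% DMSO). Lysates probed with p-ERK HTRF antibodies for 4 h; inhibition relative to DMSO and blank wells, IC50 from four-parameter fit.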

[4] = test system: MIA PaCa-2 cells (Kras G12C mutation); test: Cell proliferation inhibition experiment, 3D model, CellTiter-Glo (MIA PaCa-2); settings: Homo sapiens, MIA PaCa-2, 120 h, MIA PaCa-2, 3D sphere plate, 5 days; read-out: MIA-PaCa2 IC50
Outline: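 3D spheroid model: 200 MIA PaCa-2 cells per well cultured overnight, then treated with a 3.16-fold compound dilution series (0.1% DMSO) for 5 days. Viability read by CellTiter-Glo luminescence. Inhibition rate normalised to DMSO and medium-blank controls; IC50 from four-parameter fit.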

IC50 ([1]; Homo sapiens, NCI-H358, 120 h) | IC50 ([2]; Homo sapiens, A549, 120 h) | IC50 ([3]; Homo sapiens, MIA PaCa-2, 2 h) | IC50 [4] | IC50 [1] | IC50 [2] | IC50 [3] | Compound
3 nM | > 10000 nM | 16 nM | 5 nM |  |  |  | C=CC(=O)N1CCN2c3nc(=O)n(-c4c(C)cc(=O)n(C)c4C(C)C)c4nc(-c5ccccc5F)c(Cl)c(c34)OC[C@H]2C1 [Compound Z121]
7 nM | > 10000 nM | 47 nM | 19 nM |  |  |  | C=CC(=O)N1CCN2c3nc(=O)n(-c4c(C)ccnc4C(C)C)c4nc(-c5cc(F)ccc5F)c(Cl)c(c34)OC[C@@H]2C1 [Compound Z60]
7 nM | > 30000 nM | 101 nM | 11 nM |  |  |  | C=CC(=O)N1CCN2c3nc(=O)n(-c4c(CO)ccnc4C(C)C)c4nc(-c5ccccc5F)c(Cl)c(c34)OC[C@H]2C1 [Compound Z122]

The remaining lines, values behind:

Compound | IC50 ([1]; Homo sapiens, NCI-H358, 120 h) | IC50 ([2]; Homo sapiens, A549, 120 h) | IC50 ([3]; Homo sapiens, MIA PaCa-2, 2 h) | IC50 [4] | IC50 [1] | IC50 [2] | IC50 [3]
C=CC(=O)N1CCN2c3nc(=O)n(-c4c(C)ccnc4C(C)C)c4nc(-c5cccc(Cl)c5F)c(Cl)c(c34)OC[C@H]2C1 (single isomer, unassigned) [Compound Z91-2] |  |  |  | 15 nM | 3 nM | > 30000 nM | 18 nM
C=CC(=O)N1CCN2c3nc(=O)n(-c4c(C)ccnc4C(C)C)c4nc(-c5c(O)cccc5F)c(Cl)c(c34)OC[C@H]2C1 (single isomer, unassigned) [Compound Z23-1] |  | > 10000 nM | 13 nM | 3 nM | 1 nM |  | 
C=CC(=O)N1CCN2c3nc(=O)n(-c4c(C5CC5)ncnc4C4CC4)c4nc(-c5c(O)cccc5F)c(Cl)c(c34)OC[C@H]2C1 [Compound Z94] | 2 nM | > 10000 nM | 7 nM | 2 nM |  |  | 
C=CC(=O)N1CCN2c3nc(=O)n(-c4c(C)ccnc4C(C)C)c4nc(-c5c(O)cccc5F)c(F)c(c34)OC[C@@H]2C1 [Compound Z85] | 3 nM | 18700 nM | 54 nM | 6 nM |  |  | 
C=CC(=O)N1CCN2c3nc(=O)n(-c4c(C(C)C)ccnc4C)c4nc(-c5c(O)cccc5F)c(F)c(c34)OC[C@H]2C1 [Compound Z92] | 3 nM | > 10000 nM | 25 nM | 2 nM |  |  | 
C=CC(=O)N1CCN2c3nc(=O)n(-c4c(C#N)cnn4C(C)(C)C)c4nc(-c5ccccc5F)c(Cl)c(c34)OC[C@H]2C1 (single isomer, unassigned) [Compound Z109-1] |  | 8480 nM | 18 nM | 12 nM | 5 nM |  | 
